# Results published in patent US20220195046A1, “METHODS OF TREATING TUMOR” (Bristol-Myers Squibb Company, priority 2019, published 2022).
# How the values were obtained:
# [1] = tested on: advanced hepatocellular carcinoma (HCC); assay: Clinical Trial NCT01658878: nivolumab in advanced hepatocellular carcinoma, SOR-naive and SOR-experienced cohorts 1 and 2; type: in vivo, human
# Protocol: Cohort 1 comprised 80 SOR-naïve subjects, and Cohort 2 comprised 182 SOR-experienced subjects. Eleven subjects in Cohort 1 and 37 subjects in Cohort 2 were administered 0.1-10 mg/kg nivolumab as part of a dose-escalation analysis. Sixty-nine subject in Cohort 1 and 145 subjects in cohort 2 were administered 3 mg/kg nivolumab as part of a dose-expansion analysis. Following initial treatment, 154 subjects in Cohort 2 (9 subject from the dose-escalation study and 145 subjects from the dose-expansion study) were administered maintenance nivolumab at 3 mg/kg.
# The primary endpoints of Clinical Trial NCT01658878 were safety and tolerability (dose-escalation) as well as objected response rate (ORR; dose-expansion). Secondary endpoints included ORR (dose-escalation), disease control rate, time to response, duration of response, and overall survival. Exploratory endpoints included biomarker assessments, which are discussed here. […]
# [2] = tested on: unresectable stage III or IV melanoma; assay: Clinical trial NCT01844505: nivolumab, nivolumab plus ipilimumab, or ipilimumab in previously untreated melanoma; type: in vivo, human; details: 4-year follow up, first-line, advanced melanoma
# Protocol: In NCT01844505, 945 previously untreated patients with unresectable stage III or IV melanoma were randomly assigned in a 1:1:1 ratio to receive one of the following regimens: (i) 3 mg of nivolumab per kilogram of body weight every 2 weeks (plus ipilimumab-matched placebo) (n=316, 313 treated); (ii) 1 mg of nivolumab per kilogram every 3 weeks plus 3 mg of ipilimumab per kilogram every 3 weeks for 4 doses, followed by 3 mg of nivolumab per kilogram every 2 weeks for cycle 3 and beyond (n=314, 313 treated); or 3 mg of ipilimumab per kilogram every 3 weeks for 4 doses (plus nivolumab-matched placebo) (n=315, 311 treated) (FIG. 14). Both nivolumab and ipilimumab were administered by means of intravenous infusion.
# Randomization was stratified according to tumor PD-L1 status (positive vs. negative or indeterminate), BRAF mutation status (V600 mutation-positive vs. wild-type), and American Joint Committee on Cancer metastasis stage (M0, M1a, or M1b vs. M1c). Treatment continued until disease progression (as defined by RECIST, version 1.1), development of unacceptable toxic events, or withdrawal of consent.
# Progression-free survival and overall survival were coprimary endpoints. Secondary endpoints included objective response rate, tumor PD-L1 expression, and health related quality of life. Exploratory endpoints included safety, pharmacokinetics, and biomarker analysis.
# [3] = tested on: unresectable stage III or IV melanoma without a BRAF mutation; assay: Clinical trial NCT01721772: nivolumab vs dacarbazine in previously untreated melanoma without BRAF mutation; type: in vivo, human; details: 3-year follow up, previously untreated BRAF wildtype advanced melanoma
# Protocol: The present example reports data collected from two clinical trials: NCT01721772 and NCT01844505. In NCT01721772, 418 subjects with confirmed, unresectable, previously untreated stage III or IV melanoma without a BRAF mutation were randomly assigned in a 1:1 ratio to receive by means of intravenous infusion either 3 mg of nivolumab per kilogram of body weight every 2 weeks, plus a dacarbazine-matched placebo every 3 weeks (n=210, 206 treated), or 1000 mg of dacarbazine per square meter of body-surface area every 3 weeks, plus a nivolumab-matched placebo every 2 weeks (n=208, 205 treated). Randomization was stratified according to tumor PD-L1 status (positive vs. negative or indeterminate) and metastasis stage (M0, M1a, or M1b vs. M1c, defined according to the tumor-node-metastasis system of the American Joint Committee on Cancer and the International Union against Cancer).
# The primary end point was overall survival. Secondary end points included investigator-assessed progression-free survival, objective response rate, tumor PD-L1 expression, and health related quality of life. Exploratory endpoints included safety, pharmacokinetics, and biomarker analysis.
# [4] = monotherapy, every two weeks; cited from earlier work
# [5] = tested on: PD-L1, PD-1, T-cell markers (CD3, CD4, CD8, FOXP3), macrophage markers (CD68, CD163); assay: IHC biomarker assessment of pretreatment HCC tumor samples vs BOR and overall survival (NCT01658878); parameters: species or system human; details: for Objective response rate, % (95% CI): BOR
# Protocol: Pretreatment tumor samples (fresh or archival) were obtained from patients in the escalation and expansion phases receiving 3 mg/kg nivolumab (saved for IHC) or 0.1-10 mg/kg nivolumab (saved for RNA sequencing).
# Samples were analyzed using (i) IHC to assess PD-L1, PD-1, T-cell markers (CD3, CD4, CD8, FOXP3), and macrophage markers (CD68, CD163); and (ii) RNA sequencing to assess tumor inflammatory signatures. Biomarkers were assessed for their association with clinical outcomes including BOR by blinded independent review committee (per RECIST v1.1) and overall survival. Analyses were performed using the standard Limma and Cox regression framework.
# [6] = tumor cell PD-L1 <1%, SOR-experienced population n = 137
# [7] = tumor cell PD-L1 <1%, overall population (SOR-naïve and SOR-experienced) n = 195
# [8] = tumor cell PD-L1 ≥1%, SOR-experienced population n = 137
# [9] = tumor cell PD-L1 ≥1%, overall population (SOR-naïve and SOR-experienced) n = 195
compound,measurement,setting,value
nivolumab,ORR,[1],14.3%
same,subjects with duration of response (DOR) of at least 12 months,[1],50%
same,"ORRb, % (95% CI)",[2],45%
same,"median OS, months (95% CI)",[2],36.9 (28.3—NR) months
same,"median PFS, months (95% CI)",[2],6.9 (5.1-10.2) months
same,"ORR, % (95% CI)",[3],43%
same,"median OS, months (95% CI)",[3],37.5 (25.5—NR) months
same,"median PFS, months (95% CI)",[3],5.1 (3.5-12.2) months
same,"maximum tolerated dose (MTD), not reached at highest dose",[4],> 10 mg/kg
same,"Complete response, n (%)",[5]; [6],4 (3.6) n (%)
same,"Partial response, n (%)",[5]; [6],10 (9) n (%)
same,"Progressive disease, n (%)",[5]; [6],42 (38.1) n (%)
same,"Stable disease, n (%)",[5]; [6],49 (44.5) n (%)
same,"Objective response rate, % (95% CI)",[5]; [6],12.7 (7.6-20.3) %
same,"Complete response, n (%)",[5]; [7],6 (3.7) n (%)
same,"Partial response, n (%)",[5]; [7],19 (11.9) n (%)
same,"Progressive disease, n (%)",[5]; [7],59 (37.1) n (%)
same,"Stable disease, n (%)",[5]; [7],66 (41.5) n (%)
same,"Objective response rate, % (95% CI)",[5]; [7],15.7 (10.8-22.2) %
same,"Complete response, n (%)",[5]; [8],1 (3.7) n (%)
same,"Partial response, n (%)",[5]; [8],6 (22.2) n (%)
same,"Progressive disease, n (%)",[5]; [8],10 (37) n (%)
same,"Stable disease, n (%)",[5]; [8],8 (29.6) n (%)
same,"Objective response rate, % (95% CI)",[5]; [8],25.9 (12.9-44.9) %
same,"Complete response, n (%)",[5]; [9],2 (5.5) n (%)
same,"Partial response, n (%)",[5]; [9],8 (22.2) n (%)
same,"Progressive disease, n (%)",[5]; [9],15 (41.6) n (%)
same,"Stable disease, n (%)",[5]; [9],9 (25) n (%)
same,"Objective response rate, % (95% CI)",[5]; [9],27.7 (15.7-44.1) %
CN(C)/N=N/c1[nH]cnc1C(N)=O [dacarbazine],"ORR, % (95% CI)",[3],14%
same,"median OS, months (95% CI)",[3],11.2 (9.6-13.0) months
same,"median PFS, months (95% CI)",[3],2.2 (2.1-2.5) months
ipilimumab,"ORRb, % (95% CI)",[2],19%
same,"median OS, months (95% CI)",[2],19.9 (16.9-24.6) months
same,"median PFS, months (95% CI)",[2],2.9 (2.8-3.2) months
